From ChEMBL document CHEMBL5465560, “Selectivity Literature for EUbOPEN Chemogenomic Library” (2024) come the findings set out here.

Experiment [1] deals with T1, Serine/threonine-protein kinase TAO1 (Homo sapiens) (UniProt Q7L7X3).
T1 sequence (whole entry): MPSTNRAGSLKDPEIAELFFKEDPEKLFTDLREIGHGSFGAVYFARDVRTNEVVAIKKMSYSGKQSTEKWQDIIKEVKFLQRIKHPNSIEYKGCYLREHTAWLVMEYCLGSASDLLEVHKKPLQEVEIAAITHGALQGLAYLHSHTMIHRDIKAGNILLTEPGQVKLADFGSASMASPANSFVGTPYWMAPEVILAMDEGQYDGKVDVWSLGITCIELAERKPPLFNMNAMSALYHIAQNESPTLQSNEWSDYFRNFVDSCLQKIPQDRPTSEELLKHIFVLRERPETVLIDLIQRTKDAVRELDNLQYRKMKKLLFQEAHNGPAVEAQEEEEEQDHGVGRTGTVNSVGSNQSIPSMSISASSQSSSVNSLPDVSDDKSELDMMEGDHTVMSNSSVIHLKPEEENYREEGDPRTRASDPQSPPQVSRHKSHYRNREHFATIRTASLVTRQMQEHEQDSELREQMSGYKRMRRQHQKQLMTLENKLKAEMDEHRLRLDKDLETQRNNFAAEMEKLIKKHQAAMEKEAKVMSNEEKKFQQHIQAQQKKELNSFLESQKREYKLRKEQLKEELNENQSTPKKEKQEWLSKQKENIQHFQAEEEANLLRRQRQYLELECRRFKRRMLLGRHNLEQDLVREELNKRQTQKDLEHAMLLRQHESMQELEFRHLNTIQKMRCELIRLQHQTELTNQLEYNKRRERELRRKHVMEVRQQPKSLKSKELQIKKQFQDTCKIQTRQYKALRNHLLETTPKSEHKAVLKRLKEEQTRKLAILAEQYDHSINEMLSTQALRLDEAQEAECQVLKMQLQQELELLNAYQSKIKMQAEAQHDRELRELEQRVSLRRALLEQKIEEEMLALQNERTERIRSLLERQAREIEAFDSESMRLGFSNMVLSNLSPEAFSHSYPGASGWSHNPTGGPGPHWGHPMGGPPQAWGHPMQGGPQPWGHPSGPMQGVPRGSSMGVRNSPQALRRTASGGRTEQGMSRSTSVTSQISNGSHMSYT
The conditions noted are these: at 10 µM.

In experiment [2] the target is Mitogen-activated protein kinase 3 (Homo sapiens, UniProt P27361). The following applies: at 10 µM.
In experiment [3] the target is T2, NUAK family SNF1-like kinase 1 (Homo sapiens) (UniProt O60285).
T2 sequence (whole entry): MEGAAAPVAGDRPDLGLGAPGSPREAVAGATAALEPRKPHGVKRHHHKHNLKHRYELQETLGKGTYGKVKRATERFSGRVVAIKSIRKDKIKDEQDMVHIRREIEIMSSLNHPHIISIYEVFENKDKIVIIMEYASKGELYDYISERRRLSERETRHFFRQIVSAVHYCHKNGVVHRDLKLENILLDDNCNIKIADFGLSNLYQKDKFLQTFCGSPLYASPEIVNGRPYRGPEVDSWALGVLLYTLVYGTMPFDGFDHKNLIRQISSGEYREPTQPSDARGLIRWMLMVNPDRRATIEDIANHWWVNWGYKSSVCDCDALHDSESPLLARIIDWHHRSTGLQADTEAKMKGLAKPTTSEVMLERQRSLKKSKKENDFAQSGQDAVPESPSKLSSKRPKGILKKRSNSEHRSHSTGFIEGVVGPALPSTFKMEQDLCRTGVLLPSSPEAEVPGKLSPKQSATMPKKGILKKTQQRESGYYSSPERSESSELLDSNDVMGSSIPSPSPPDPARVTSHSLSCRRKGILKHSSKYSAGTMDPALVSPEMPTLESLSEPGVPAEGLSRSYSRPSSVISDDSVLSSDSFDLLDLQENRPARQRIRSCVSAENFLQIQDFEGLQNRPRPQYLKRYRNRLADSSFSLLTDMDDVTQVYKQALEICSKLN
In words: Selectivity interaction (KinomeScan (DiscoverX)) EUB0001079a NUAK1. The following applies: at 1 µM.

Experiment [4] has as its target Serine/threonine-protein kinase WNK1 (Homo sapiens) (UniProt Q9H4A3). The experiment in a line: Selectivity interaction (ActivX KiNativ screen (kinase selectivity in THP-1 cell lysates)) EUB0000639a WNK1. The format is subcellular. The conditions noted are these: lysate, at 5 µM.
In experiment [5] the target is T3, Ribosomal protein S6 kinase delta-1 (Homo sapiens) (UniProt Q96S38).
T3 sequence (whole entry): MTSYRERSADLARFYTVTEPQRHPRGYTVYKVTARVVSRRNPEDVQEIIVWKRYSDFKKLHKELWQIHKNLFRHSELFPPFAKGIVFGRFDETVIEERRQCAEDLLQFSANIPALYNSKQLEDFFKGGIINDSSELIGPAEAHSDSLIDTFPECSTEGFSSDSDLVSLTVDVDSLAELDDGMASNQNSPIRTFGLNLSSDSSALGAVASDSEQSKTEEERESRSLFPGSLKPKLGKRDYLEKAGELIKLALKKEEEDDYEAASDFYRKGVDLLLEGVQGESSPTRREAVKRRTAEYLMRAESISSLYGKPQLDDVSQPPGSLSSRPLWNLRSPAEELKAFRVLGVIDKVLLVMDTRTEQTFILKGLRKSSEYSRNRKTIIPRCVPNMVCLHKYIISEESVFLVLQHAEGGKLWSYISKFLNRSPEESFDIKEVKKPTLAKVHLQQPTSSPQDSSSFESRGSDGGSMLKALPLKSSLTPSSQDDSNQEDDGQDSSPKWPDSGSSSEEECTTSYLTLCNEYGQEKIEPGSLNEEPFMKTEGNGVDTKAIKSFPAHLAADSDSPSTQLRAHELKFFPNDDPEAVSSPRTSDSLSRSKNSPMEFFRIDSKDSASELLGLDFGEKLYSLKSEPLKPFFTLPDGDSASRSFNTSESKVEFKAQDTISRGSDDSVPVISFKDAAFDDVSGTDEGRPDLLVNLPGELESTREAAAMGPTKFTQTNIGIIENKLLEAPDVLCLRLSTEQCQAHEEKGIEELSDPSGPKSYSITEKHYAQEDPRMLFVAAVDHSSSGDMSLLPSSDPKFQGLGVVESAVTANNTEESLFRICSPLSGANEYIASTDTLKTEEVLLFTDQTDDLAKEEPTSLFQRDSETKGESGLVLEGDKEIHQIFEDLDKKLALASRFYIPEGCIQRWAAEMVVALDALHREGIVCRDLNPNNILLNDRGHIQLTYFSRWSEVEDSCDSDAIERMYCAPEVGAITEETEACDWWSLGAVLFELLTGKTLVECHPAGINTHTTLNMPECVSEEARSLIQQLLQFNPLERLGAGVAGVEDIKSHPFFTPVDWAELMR
The experiment in a line: Selectivity interaction (Kinase panel (KiNativ target engagement assay in Jurkat cells)) EUB0001635a RPS6KC1. The format is cell-based. The conditions noted are these: Selectivity number of off-targets 0.0, Selectivity number of targets 233.0, Source Knowledge https://www.sciencedirect.com/science/article/pii/S2451945619300674?via%3Dihub, at 1 µM.

The target in experiment [6] is Dual specificity protein kinase CLK3 (Homo sapiens, UniProt P49761). In words: Selectivity interaction (KinomeScan (DiscoverX)) EUB0000618a CLK3. The conditions noted are these: at 10 µM.
Chain of Dual specificity protein kinase CLK3 (P49761 whole entry, looked up): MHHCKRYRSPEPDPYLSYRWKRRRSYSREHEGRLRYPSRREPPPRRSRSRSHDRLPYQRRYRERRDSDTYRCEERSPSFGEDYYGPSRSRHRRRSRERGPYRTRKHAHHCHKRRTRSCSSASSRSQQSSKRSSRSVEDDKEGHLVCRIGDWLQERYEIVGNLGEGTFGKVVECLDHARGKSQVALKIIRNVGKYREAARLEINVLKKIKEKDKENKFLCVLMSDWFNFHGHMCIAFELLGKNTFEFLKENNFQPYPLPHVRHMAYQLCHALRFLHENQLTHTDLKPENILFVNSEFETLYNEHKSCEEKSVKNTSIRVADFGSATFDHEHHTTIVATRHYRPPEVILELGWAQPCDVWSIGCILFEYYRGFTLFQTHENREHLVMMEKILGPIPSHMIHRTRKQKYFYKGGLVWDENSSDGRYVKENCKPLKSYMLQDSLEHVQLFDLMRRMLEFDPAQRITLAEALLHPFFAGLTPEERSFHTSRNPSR

Chain of Mitogen-activated protein kinase 3 (P27361 whole entry): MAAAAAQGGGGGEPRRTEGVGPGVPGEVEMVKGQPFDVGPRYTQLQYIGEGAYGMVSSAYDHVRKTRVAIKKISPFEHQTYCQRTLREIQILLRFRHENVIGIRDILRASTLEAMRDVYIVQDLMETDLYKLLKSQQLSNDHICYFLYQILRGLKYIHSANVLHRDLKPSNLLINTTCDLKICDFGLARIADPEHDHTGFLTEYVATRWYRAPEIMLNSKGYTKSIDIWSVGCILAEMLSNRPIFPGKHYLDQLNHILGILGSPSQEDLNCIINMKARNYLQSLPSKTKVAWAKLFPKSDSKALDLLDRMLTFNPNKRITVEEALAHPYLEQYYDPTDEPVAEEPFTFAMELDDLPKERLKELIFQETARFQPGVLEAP
Chain of Serine/threonine-protein kinase WNK1 (Homo sapiens) (Q9H4A3 whole entry, looked up): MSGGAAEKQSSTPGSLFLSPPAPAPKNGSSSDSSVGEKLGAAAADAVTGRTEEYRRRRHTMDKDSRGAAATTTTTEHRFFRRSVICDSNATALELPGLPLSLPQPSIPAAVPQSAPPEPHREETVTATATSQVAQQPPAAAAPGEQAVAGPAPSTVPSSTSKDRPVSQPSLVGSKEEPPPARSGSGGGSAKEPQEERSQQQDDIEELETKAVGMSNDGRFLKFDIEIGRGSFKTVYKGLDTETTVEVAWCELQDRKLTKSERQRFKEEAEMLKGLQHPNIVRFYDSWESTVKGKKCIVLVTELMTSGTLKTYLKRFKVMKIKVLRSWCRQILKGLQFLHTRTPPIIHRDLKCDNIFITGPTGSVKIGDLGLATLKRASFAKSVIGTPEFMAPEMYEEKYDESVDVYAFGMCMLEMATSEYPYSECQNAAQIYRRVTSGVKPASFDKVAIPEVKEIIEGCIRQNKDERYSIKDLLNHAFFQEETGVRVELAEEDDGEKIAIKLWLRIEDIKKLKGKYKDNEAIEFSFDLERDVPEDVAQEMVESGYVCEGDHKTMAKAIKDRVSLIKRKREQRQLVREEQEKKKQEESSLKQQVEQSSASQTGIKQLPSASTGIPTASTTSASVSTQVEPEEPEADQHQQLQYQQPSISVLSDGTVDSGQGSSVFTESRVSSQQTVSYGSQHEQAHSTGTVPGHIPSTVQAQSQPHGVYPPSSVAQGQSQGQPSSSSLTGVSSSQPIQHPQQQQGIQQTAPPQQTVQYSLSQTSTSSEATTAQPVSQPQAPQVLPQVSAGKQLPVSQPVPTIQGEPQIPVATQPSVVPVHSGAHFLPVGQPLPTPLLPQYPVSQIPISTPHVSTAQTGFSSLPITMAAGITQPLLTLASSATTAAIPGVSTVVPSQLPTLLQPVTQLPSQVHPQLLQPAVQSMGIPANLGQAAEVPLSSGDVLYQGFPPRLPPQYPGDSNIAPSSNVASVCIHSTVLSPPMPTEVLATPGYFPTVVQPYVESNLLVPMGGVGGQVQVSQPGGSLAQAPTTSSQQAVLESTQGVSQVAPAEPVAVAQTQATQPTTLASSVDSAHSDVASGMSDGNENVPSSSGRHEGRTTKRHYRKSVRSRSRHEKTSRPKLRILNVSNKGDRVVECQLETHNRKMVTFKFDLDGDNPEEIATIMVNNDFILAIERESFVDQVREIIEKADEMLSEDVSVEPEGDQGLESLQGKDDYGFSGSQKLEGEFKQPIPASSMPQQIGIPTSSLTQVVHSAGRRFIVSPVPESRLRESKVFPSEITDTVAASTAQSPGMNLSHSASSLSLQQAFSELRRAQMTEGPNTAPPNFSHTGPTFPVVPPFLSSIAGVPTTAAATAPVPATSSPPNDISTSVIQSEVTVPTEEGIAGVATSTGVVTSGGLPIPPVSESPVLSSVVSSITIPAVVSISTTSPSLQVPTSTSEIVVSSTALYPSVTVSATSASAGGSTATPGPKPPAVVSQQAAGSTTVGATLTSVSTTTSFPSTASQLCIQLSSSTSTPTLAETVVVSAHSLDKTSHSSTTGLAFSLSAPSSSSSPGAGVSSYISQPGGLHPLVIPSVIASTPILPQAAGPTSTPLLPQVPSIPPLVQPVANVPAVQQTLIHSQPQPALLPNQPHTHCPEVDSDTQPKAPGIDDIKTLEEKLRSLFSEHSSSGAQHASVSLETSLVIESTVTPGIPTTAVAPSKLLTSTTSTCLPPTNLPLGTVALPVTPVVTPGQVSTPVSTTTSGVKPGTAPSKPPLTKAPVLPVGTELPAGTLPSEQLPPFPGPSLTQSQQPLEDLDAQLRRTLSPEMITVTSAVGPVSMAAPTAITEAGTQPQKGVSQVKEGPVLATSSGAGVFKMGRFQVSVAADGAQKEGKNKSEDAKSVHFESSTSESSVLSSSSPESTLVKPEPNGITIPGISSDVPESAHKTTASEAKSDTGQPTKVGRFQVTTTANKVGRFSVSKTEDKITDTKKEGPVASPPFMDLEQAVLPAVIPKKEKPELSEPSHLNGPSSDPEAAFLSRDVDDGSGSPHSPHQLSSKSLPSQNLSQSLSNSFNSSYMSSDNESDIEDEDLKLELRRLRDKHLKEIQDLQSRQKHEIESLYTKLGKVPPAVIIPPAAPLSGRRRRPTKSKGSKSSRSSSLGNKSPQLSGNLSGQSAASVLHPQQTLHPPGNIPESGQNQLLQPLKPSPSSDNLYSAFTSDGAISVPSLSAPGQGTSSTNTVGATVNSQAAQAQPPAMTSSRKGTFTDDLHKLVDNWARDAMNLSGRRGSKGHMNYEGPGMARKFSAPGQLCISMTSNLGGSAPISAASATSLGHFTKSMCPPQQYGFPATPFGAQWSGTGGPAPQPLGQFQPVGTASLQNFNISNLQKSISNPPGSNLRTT

Turning to `Cc1cc([C@@H](C)Nc2ccccc2C(=O)O)c2nc(N3CCOCC3)cc(=O)n2c1` [AZD-6482], the % of control in experiment [1] was found to be 59%; in experiment [2], 95%.

In experiment [3], `Nc1cnc(N2CCc3cc(S(=O)(=O)Nc4c(F)cc(Cl)cc4F)cc(N4CCCC4=O)c32)nc1` [TP-020n] registered a % of control of 100%.

In the case of `CC[C@@H]1[C@H](F)C(=O)N[C@@H]1COc1nccc2cc(C(N)=O)c(OC)cc12` [ZIMLOVISERTIB], the % of inhibition in experiment [4] was -14.5%.

In experiment [5], `C=CC(=O)Nc1ccc(C(=O)Nc2[nH]nc3c2CN(C(=O)N[C@H](CN(C)C)c2ccccc2)C3(C)C)cc1` returned a % of engagement of 0.7%.

In experiment [6], `O[C@H]1CC[C@H](Nc2ncc3nc(Nc4c(F)cc(F)cc4F)n([C@H]4CCOC4)c3n2)CC1` gave a % of control of 93%.
